From patent US10221163B2 (priority 2015, dated 2019)
Where two headings read alike, the source gives them in different places.

Columns and labels:
IMP-1 = IMP-1 (Serratia marcescens, UniProt P52699); assay: biochemical; format: biochemical; conditions: CCF2-FA substrate, 2 pM enzyme, 2 hours at 25° C.
Summary of the method: (§1)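 Fluorescence assay, CCF2-FA substrate (cephalosporin core linking 7-hydroxycoumarin to fluorescein); inhibitor + MBL + substrate, 2 h, 25° C. IC50 by 4-parameter fit, semi-log plot.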

NDM-1 = NDM-1 (Klebsiella pneumoniae, UniProt C7C422); assay: biochemical; format: biochemical; conditions: fluorescence assay, CCF2-FA substrate, 1 pM enzyme, 2 hours at 25° C.; read-out: NDM-1 IC50
Sequence of NDM-1 (C7C422 whole entry, looked up, species assumed): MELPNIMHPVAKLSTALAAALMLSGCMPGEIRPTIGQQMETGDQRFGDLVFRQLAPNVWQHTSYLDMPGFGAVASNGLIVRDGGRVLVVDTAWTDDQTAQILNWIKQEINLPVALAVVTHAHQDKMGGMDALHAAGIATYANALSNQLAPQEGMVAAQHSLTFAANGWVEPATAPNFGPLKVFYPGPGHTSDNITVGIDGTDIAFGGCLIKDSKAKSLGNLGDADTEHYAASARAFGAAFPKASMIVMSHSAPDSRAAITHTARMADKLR
Summary of the method: as §1

[1] = tested on: Klebsiella pneumoniae expressing VIM-1 (IHMA599644); format: cell-based; conditions: for Klebsiella pneumoniae expressing VIM-1 (IHMA599644) MITC95: with imipenem 1 μg/ml, 95% inhibition of bacterial growth; for Klebsiella pneumoniae MITC95: VIM-1 strain IHMA599644, with imipenem 1 μg/ml, 95% inhibition of growth
Summary of the method: (§2)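 Growth by absorbance after 22–24 h at 35°C defined the read-out, with imipenem fixed at 1 μg/ml alongside compound. Inocula came from overnight blood-agar colonies at 35°C, resuspended in saline and diluted 1:100 in 1.1×CAMHB.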

[2] = tested on: Serratia marcescens expressing IMP-1 (CL5741); format: cell-based; conditions: for Serratia marcescens expressing IMP-1 (CL5741) MITC95: with imipenem 1 μg/ml, 95% inhibition of bacterial growth; for Serratia marcescens MITC95: IMP-1 strain CL5741, with imipenem 1 μg/ml, 95% inhibition of growth
Summary of the method: as §2

[3] = tested on: Escherichia coli expressing NDM-1 (CLB30005, CLB30016); format: cell-based; conditions: with imipenem 1 μg/ml; for Escherichia coli expressing NDM-1 (CLB30016) MITC95: 95% inhibition of bacterial growth; for Escherichia coli MITC95: NDM-1 strain, 95% inhibition of growth
Summary of the method: as §2

VIM-1 = VIM-1 (Pseudomonas aeruginosa (strain ATCC 15692 / DSM 22644 / CIP 104116 / JCM 14847 / LMG 12228 / 1C / PRS 101 / PAO1), UniProt A0A0F7KYQ8); assay: biochemical; conditions: CCF2-FA substrate, 30 pM enzyme, 2 hours at 25° C.
Description: Enzyme Activity: Determination of IC50
The Class B enzyme activities were measured in the presence of the test inhibitor in a fluorescence assay against a commercially available substrate consisting of a cephalosporin core linking 7-hydroxycoumarin to fluorescein (CCF2-FA). […] In a 384-well microplate, the test inhibitor was incubated with the metallo-β-lactamase enzyme and the substrate for 2 hours at 25° C. […] The IC50 value was determined from semi-logarithmic plots of enzyme inhibition versus inhibitor concentration, with a curve generated using a 4-parameter fit.

[4] = tested on: Pseudomonas aeruginosa efflux− (MB9799), IMP-1; format: cell-based; conditions: C, D serine β-lactamase inhibitor closely related to relebactam; for P. aeruginosa expressing IMP-1, efflux − (MB9799) MITC95: concentration restoring susceptibility to imipenem at 2 μg/mL in the presence of a class A; for Concentration of metallo-β-lactamase inhibitor which restores susceptibility of efflux − (MB9799) strain to imipenem: imipenem at 2 μg/mL, in the presence of a class A
Summary of the method: (§3)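 P. aeruginosa PAO1-derived IMP-1 strains, efflux+ MB9798 and efflux− MB9799, tested by standard microbroth MIC with imipenem and/or ceftazidime fixed, usually at CLSI breakpoint, plus fixed class A/C β-lactamase inhibitor against AmpC. Inhibitor titrated; concentration restoring susceptibility recorded; MB9798/MB9799 fold difference indicates efflux.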

[5] = tested on: Pseudomonas aeruginosa MB9798 vs MB9799; conditions: ratio MITC95 PA_9798/MITC95 PA_9799
Description: The strain background was Pseudomonas aeruginosa PAO1.
The strain set was then used as a pair to determine the effect of metallo-β-lactamase inhibitors of Formula I on the MIC of imipenem and/or ceftazidime. A fixed concentration of antibiotic was included in standard microbroth MIC tests, usually at the CLSI (Clinical and Laboratory Standards Institute) breakpoint concentration. A fixed amount of a class A/C beta-lactamase inhibitor was also included to inhibit the resident Pseudomonas AmpC enzyme. A serial titration of the metallo-β-lactamase inhibitor was included and the concentration of metallo-β-lactamase inhibitor which restores susceptibility of the strain to the included antibiotic was recorded. That concentration of metallo-β-lactamase inhibitor was then compared between the two strains to determine the fold difference between the efflux+ (MB9798) and efflux− (MB9799) strains. This was taken as an indication of the extent to which the MBLi is subject to efflux.

[6] = tested on: Pseudomonas aeruginosa efflux+ (MB9798), IMP-1; format: cell-based; parameters: Concentration of metallo-β-lactamase inhibitor which restores susceptibility of efflux + (MB9798) strain to imipenem: unit not given here; conditions: C, D serine β-lactamase inhibitor closely related to relebactam; for P. aeruginosa expressing IMP-1, efflux + (MB9798) MITC95: concentration restoring susceptibility to imipenem at 2 μg/mL in the presence of a class A; for Concentration of metallo-β-lactamase inhibitor which restores susceptibility of efflux + (MB9798) strain to imipenem: imipenem at 2 μg/mL, in the presence of a class A
Summary of the method: as §3

[7] = fluorescence assay, read-out: IMP-1 IC50
[8] = fluorescence assay, read-out: VIM-1 IC50

Sequence of IMP-1 (P52699 whole entry, looked up, species assumed): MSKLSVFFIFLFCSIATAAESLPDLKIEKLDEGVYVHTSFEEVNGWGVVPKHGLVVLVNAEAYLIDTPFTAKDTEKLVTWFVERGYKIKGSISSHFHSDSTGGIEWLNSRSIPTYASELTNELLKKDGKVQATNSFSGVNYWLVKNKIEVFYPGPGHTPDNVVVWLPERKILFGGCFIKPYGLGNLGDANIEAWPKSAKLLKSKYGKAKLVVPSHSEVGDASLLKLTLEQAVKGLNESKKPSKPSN

SMILES	IC50 (IMP-1; IMP-1 IC50, fluorescence assay) [pM]	IC50 (NDM-1) [pM]	Klebsiella pneumoniae expressing VIM-1 (IHMA599644) MITC95 [1] [µM]	Serratia marcescens expressing IMP-1 (CL5741) MITC95 [2] [µM]	Escherichia coli expressing NDM-1 (CLB30016) MITC95 [3] [µM]	IC50 (VIM-1; VIM-1 IC50, fluorescence assay) [pM]	IC50 (IMP-1; [7]) [pM]	IC50 (VIM-1; [8]) [pM]	P. aeruginosa expressing IMP-1, efflux − (MB9799) MITC95 [4] [µM]	Efflux ratio [5]	P. aeruginosa expressing IMP-1, efflux + (MB9798) MITC95 [6] [µM]	Klebsiella pneumoniae MITC95 [1] [µM]	Serratia marcescens MITC95 [2] [µM]	Escherichia coli MITC95 [3] [µM]	Concentration of metallo-β-lactamase inhibitor which restores susceptibility of efflux − (MB9799) strain to imipenem [4]	Concentration of metallo-β-lactamase inhibitor which restores susceptibility of efflux + (MB9798) strain to imipenem [6]
C[C@H](CN)NS(=O)(=O)c1ccc(-c2cccc3sc(N)nc23)c(-c2nnn[nH]2)c1S(N)(=O)=O [Example 72, (R)-4-(2-aminobenzo[d]thiazol-4-yl)-N^1-(1-aminopropan-2-yl)-3-(1H-tetrazol-5-yl)benzene-1,2-disulfonamide]	270	20	3.125	1.563	1.563	260										
Nc1nc2c(-c3ccc(S(=O)(=O)NC4C[C@@H]5CN[C@H]4C5)c(S(N)(=O)=O)c3-c3nnn[nH]3)cccc2s1.O=CO (stereo partly drawn) [Example 119, 4-(2-aminobenzo[d[thiazol-4-yl)-N1-((1S,4R)-2-azabicyclo[2.2.1]heptan-6-yl)-3-(1H-tetrazol-5-yl)benzene-1,2-disulfonamide, formate salt]		40.7					223	254								
Nc1nc2c(-c3ccc(S(=O)(=O)NC4C[C@@H]5CN[C@H]4C5)c(S(N)(=O)=O)c3-c3nnn[nH]3)cccc2s1.O=CO (stereo partly shown) [Example 119]			3.125	1.563	1.563				1.563	0.50	0.7813					
C[N+]1(C)CC[C@@H](NS(=O)(=O)c2ccc(-c3cccc4[nH]c(N)nc34)c(-c3nn[nH]n3)c2S(N)(=O)=O)C1.[Cl-] [Example 233, (R)-3-((4-(2-amino-1H-benzo[d]imidazol-4-yl)-2-sulfamoyl-3-(2H-tetrazol-5-yl)phenyl)sulfonamido)-1,1-dimethylpyrrolidin-1-ium chloride]		22.5	1.563	0.3906	0.3906		305		1.563	1.00	1.563					
C[N+]1(CCN)CC[C@H](NS(=O)(=O)c2ccc(-c3cccc4[nH]c(N)nc34)c(-c3nn[nH]n3)c2S(N)(=O)=O)C1.O=C([O-])O (stereo partly drawn) [Example 249, (3S)-3-{[4-(2-amino-1H-1,3-benzodiazol-4-yl)-2-sulfamoyl-3-(2H-1,2,3,4-tetrazol-5-yl)benzene]sulfonamido}-1-(2-aminoethyl)-1-methylpyrrolidin-1-ium methaneperoxoate]		15.3					342		0.7813	1.00	0.7813	1.563	1.563	0.3906		
NC[C@H]1CCN(S(=O)(=O)c2ccc(-c3cccc4[nH]c(N)nc34)c(-c3nn[nH]n3)c2S(N)(=O)=O)C1 [Example 253, (R)-3-(2-amino-1H-benzo[d]imidazol-4-yl)-6-((3-(aminomethyl)pyrrolidin-1-yl)sulfonyl)-2-(2H-tetrazol-5-yl)benzenesulfonamide]		884					2680	1530	0.7813		1.563	1.563	0.7813	1.563		
NCc1nc2c(-c3ccc(S(=O)(=O)NC[C@@H]4CNCCN4)c(S(N)(=O)=O)c3-c3nn[nH]n3)cccc2[nH]1 [Example 311, (S)-4-(2-(aminomethyl)-1H-benzo[d]imidazol-4-yl)-N-(piperazin-2-ylmethyl)-3-(2H-tetrazol-5-yl)benzene-1,2-disulfonamide]		98.6						110	1.563		1.563	3.125	1.563	1.563		
NCCNS(=O)(=O)c1ccc(-c2cccc(C(=O)N[C@@H]3CNC[C@H]3O)c2)c(-c2nn[nH]n2)c1S(N)(=O)=O [Example 344]		1390					4260	520	0.7813		1.563	1.563	1.563	0.7813		
Nc1nc2c(-c3ccc(S(=O)(=O)N[C@@H]4C[C@H]4N)c(S(N)(=O)=O)c3-c3nn[nH]n3)cccc2s1 [Example 388, 4-(2-amino-1,3-benzothiazol-4-yl)-N^1-[(1R,2R)-2-aminocyclopropyl]-3-(2H-tetrazol-5-yl)benzene-1,2-disulfonamide]		88.4				375			3.125		1.563	6.25	3.125	3.125		
Nc1ccc(-c2ccc(S(=O)(=O)N[C@H]3CNC[C@H]3N)c(S(N)(=O)=O)c2-c2nn[nH]n2)cn1 [Example 413]		248					800	300				3.125	1.563	0.7813	1.563	1.563
Nc1ccc(-c2ccc(S(=O)(=O)N[C@@H]3CNC[C@@H]3N)c(S(N)(=O)=O)c2-c2nn[nH]n2)cn1 [Example 414]		329					786	347				3.125	0.7813	0.3906	1.563	1.563
C[C@H](N)Cc1nc2c(-c3ccc(S(=O)(=O)N[C@@H]4CCNC4)c(S(N)(=O)=O)c3-c3nn[nH]n3)cccc2[nH]1 [Example 441, 4-(2-((S)-2-Aminopropyl)-1H-benzo[d]imidazol-4-yl)-N1-((R)-pyrrolidin-3-yl)-3-(2H-tetrazol-5-yl)benzene-1,2-disulfonamide]		81.1					1230	150				1.563	1.563	1.563	0.7813	1.563
